GI50 and TGI data for 8 compounds are collected here from PubChem BioAssay (NCI).

What all share (assay): NCI-60 cell line screen, 48 h
The test system of test [1] is MOLT-4 leukemia.
For test [2], the system named is OVCAR-3 ovarian.
For test [3], the system named is OVCAR-8 ovarian.
The test system of test [4] is UACC-62 melanoma.
In test [5] the test system is SK-MEL-28 melanoma.
The test system of test [6] is SF-539 CNS.
Test [7] relates to SF-268 CNS.
The subject of test [8] is RXF 393 renal.
Test [9] relates to SK-MEL-5 melanoma.
Test [10] relates to EKVX NSCLC.

Several values for one entry are separate records, joined by “and”; a condition that tells them apart may be missing. Equal entries are not always repeated.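 In this assay, cells in 96-well plates receive the compound at five concentrations for 48 hours. Endpoints are linearly interpolated between the surrounding concentrations. Abbreviation: GI50, concentration required for 50% inhibition of growth. TGI denotes the concentration required for complete inhibition of growth.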

Take `CNc1ncc2cc(-c3cc(NC(=O)NCCC(C)(C)C)c(F)cc3C)c(C)nc2n1`: the GI50 in test [1] was 0.688 µM and > 2.45 µM; in test [2], 1.93 µM and 1.89 µM; in test [3], 0.512 µM and 0.515 µM; in [4], < 0.01 µM and 0.00585 µM; in [5] it was < 0.01 µM and 0.0101 µM; in [6] it was 0.526 µM and 1.05 µM. The GI50 in test [7] is 0.716 µM and 0.721 µM; in test [8], 1.01 µM and 0.504 µM; in test [9], 0.458 µM and 0.309 µM; in test [10], 2.54 µM and 1.38 µM. The TGI was greater than 69.7 µM in test [1]; greater than 100 µM in [2]; greater than 100 µM in [3]; 0.0881 µM and 0.121 µM in test [4]; 0.118 µM and 0.239 µM in test [5]; 9.49 µM and > 10 µM in test [6]. In addition, the TGI in test [7] is greater than 100 µM; in [8] it was 5.99 µM and > 6.39 µM; in test [9], 16.3 µM and > 10 µM; in test [10], 99.6 µM and > 10 µM.
`CN1CCc2cc3c4cc2C1Cc1ccc(cc1)Oc1cc(ccc1O)CC1c2c(cc(O)c(c2O4)O3)CCN1C` (stereo not given): the TGI turned out to be 10.2 µM in test [1]; 11.5 µM in test [2]; 8.55 µM in test [3]; 3.76 µM in test [4]; 3.33 µM in test [5]; 3.21 µM in test [6]. Further, the TGI was determined as 6.18 µM in [7], 13.2 µM in [8], 16.7 µM in test [9] and 25.8 µM in test [10].
On to `O=C1C(Br)=CC2(C=C1Br)CCNc1c(O)c3c4c(c12)=NCCC=4C=N3`, for which the TGI was determined as 0.11 µM in [1]; 0.0835 µM in test [2]; 0.511 µM in [3]; 0.233 µM in test [4]; 0.416 µM in test [5]; 0.557 µM in test [6]. In addition, the TGI in test [7] worked out at 1.18 µM; in test [8], 0.217 µM; in test [9], 0.266 µM; in test [10] it was 0.521 µM.
As to `CS(=O)(=O)N1CCc2c(-c3cnc(N)nc3)nc(N3CCOCC3)nc21`, the GI50 in test [1] is 0.92 µM and 0.807 µM; in test [2], 0.59 µM and 0.641 µM; in [3] it was 1.65 µM and 0.984 µM; in [4], 0.28 µM and 0.393 µM; in test [5], 0.646 µM and 0.695 µM; in test [6], 0.835 µM and 0.878 µM. The GI50 in test [7] is 0.821 µM and 1.05 µM; in [8], 0.605 µM and 0.421 µM; in test [9], 1.78 µM and 1.36 µM; in test [10], 0.988 µM and 0.44 µM. Besides, the TGI in test [1] is greater than 100 µM; in [2], greater than 21.4 µM; in test [3], > 10 µM and 14 µM; in [4], 2.24 µM and 2.9 µM; in test [5], 8.18 µM and 13.1 µM; in [6] it was 4.13 µM and 3.89 µM. Besides, the TGI is greater than 51.6 µM in test [7]; 4.04 µM and 3.27 µM in test [8]; greater than 30.7 µM in test [9]; > 10 µM and 5.74 µM in test [10].
For the compound `COC(=O)[C@]12CC[C@@H](C)[C@H](C)[C@@H]1C1=CC[C@@H]3[C@@]4(C)CC(=O)[C@H](O)[C@@](C)(CO)[C@@H]4C(=O)C[C@@]3(C)[C@]1(C)CC2`, the GI50 in test [1] is 10.3 µM; in test [2], 11.6 µM; in test [3] it was 4.89 µM; in test [4], 3.25 µM; in test [5], 14.6 µM; in test [6] it was 16.2 µM. Besides, the GI50 was 12.6 µM in test [7], 13.8 µM in [8], 11.6 µM in [9] and 14.8 µM in test [10]. The TGI in test [1] stood at 27.1 µM; in [2] it was 24.8 µM; in test [3], 22.6 µM; in [4] it was 20.8 µM; in test [5] it was 31.9 µM; in test [6], 31.6 µM. Also, the TGI in [7] worked out at 26.5 µM; in [8], 28.6 µM; in test [9] it was 23.9 µM; in test [10], 29.2 µM.
As for `N[C@@H](CSSC[C@H](N)C(=O)N1CCn2cc(-c3ccccc3)nc2[C@@H]1CC1CCCCC1)C(=O)N1CCn2cc(-c3ccccc3)nc2[C@@H]1CC1CCCCC1`, the GI50 is 1.74 µM in [1]; 1.41 µM in [2]; 1.87 µM in test [3]; 0.843 µM in test [4]; 0.529 µM in test [5]; 1.75 µM in test [6]. In addition, the GI50 in test [7] is 0.344 µM; in [8], 1.63 µM; in [9] it was 0.361 µM; in test [10], 1.34 µM. The TGI in test [1] is greater than 21.4 µM; in test [2], 2.76 µM; in test [3], 5.76 µM; in [4], 2.32 µM; in [5], 1.96 µM; in [6], 3.55 µM. Also, the TGI in [7] came to 2.46 µM; in test [8], 3.1 µM; in test [9], 1.53 µM; in [10] it was 2.81 µM.
As to `O=C1N=C(Nc2nc(-c3csc(NC4=NC(=O)/C(=C\c5ccc(Cl)cc5)S4)n3)cs2)S/C1=C/c1ccc(Cl)cc1`, the GI50 in [1] was 1.69 µM; in test [2] it was 10.5 µM; in test [3] it was 8.99 µM; in test [4], 6.03 µM; in test [5], 42.8 µM; in [6], 15.4 µM. For the same compound, the GI50 is 8.29 µM in test [7], 11.6 µM in test [8], 3.83 µM in test [9] and 12.3 µM in [10]. Besides, the TGI in test [1] is greater than 50 µM; in test [2], 37.3 µM; in test [3], 30.2 µM; in test [4], 16.4 µM; in test [5], greater than 50 µM; in test [6], 46.2 µM. Also, the TGI in test [7] is greater than 50 µM; in [8] it was greater than 50 µM; in test [9] it was 41 µM; in test [10], greater than 50 µM.
As to `N#CC1C(=O)NC(=O)C1=O` (stereo not given), the TGI in [1], in test [2], in test [3], in test [4], in [5] and in test [6] was greater than 100 µM in each case. The TGI in test [7], in [8], in test [9] and in [10] was greater than 100 µM in each case.
